The values that follow come from patent US7208500B2, “Thienopyridine-phenylacetamides and their derivatives useful as new anti-angiogenic agents” (Agouron Pharmaceuticals, Inc., priority 2003, dated 2007).

Experiment [1] relates to human umbilical vein endothelial cells (HUVEC). The experiment is described as follows: HUVEC + VEGF proliferation assay. Type of experiment: cell-based. The following applies: VEGF-stimulated proliferation, final VEGF 6 ng/mL, 72 hours, MTT. Here is the method: This assay determines the ability of a test compound to inhibit the growth factor-stimulated proliferation of human umbilical vein endothelial cells (“HUVEC”). HUVEC cells (passage 3–4, Clonetics, Corp.) were thawed into EGM2 culture medium (Clonetics Corp) in T75 flasks. Fresh EGM2 medium was added to the flasks 24 hours later. Four or five days later, cells were exposed to another culture medium (F12K medium supplemented with 10% fetal bovine serum (FBS), […] endothelial cell growth supplement (ECGS), and 0.1 mg/mL heparin). Exponentially-growing HUVEC cells were used in experiments thereafter. Ten to twelve thousand HUVEC cells were plated in 96-well dishes in […] of rich, culture medium (described above). The cells were allowed to attach for 24 hours in this medium. The medium was then removed by aspiration and […] of starvation media (F12K+1% FBS) was added to each well. After 24 hours, […] of test agent dissolved in 1% DMSO in starvation medium or this vehicle alone was added into each treatment well; the final DMSO concentration was 0.1%. One hour later, […] of VEGF (30 ng/mL) in starvation media was added to all wells except those containing untreated controls; the final VEGF concentration was 6 ng/mL. Cellular proliferation was quantified 72 hours later by MTT dye reduction, at which time cells were exposed for 4 hours MTT (Promega Corp.). Dye reduction was stopped by addition of a stop solution (Promega Corp.) and absorbance at 595 nm was determined on a 96-well spectrophotometer plate reader.

Experiment [2] deals with T1, FGF-R1 intracellular kinase domain (Homo sapiens, UniProt P11362, C488A/C584S/L457V).
T1 construct: starting from the endogenous methionine residue 456 to glutamate 766; made in house; host or cells: baculovirus vector expression system
T1 sequence (P11362 456-766 L457V/C488A/C584S): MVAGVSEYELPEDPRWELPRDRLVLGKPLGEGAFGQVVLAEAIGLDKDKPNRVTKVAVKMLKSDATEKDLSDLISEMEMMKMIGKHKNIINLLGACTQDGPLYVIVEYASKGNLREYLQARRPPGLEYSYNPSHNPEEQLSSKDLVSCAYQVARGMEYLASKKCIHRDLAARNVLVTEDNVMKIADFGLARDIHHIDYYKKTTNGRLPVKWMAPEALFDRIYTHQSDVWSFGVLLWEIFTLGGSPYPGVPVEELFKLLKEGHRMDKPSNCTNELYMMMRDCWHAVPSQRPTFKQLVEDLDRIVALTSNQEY
The experiment is described as follows: FGF-R spectrophotometric assay. Type of experiment: biochemical. To be noted: 50 nM test compound; read-out: FGF-P (% inh @ 50 nM). Put shortly: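 Human FGF-R1 kinase domain (Met456–Glu766, L457V/C488A/C584S) expressed in baculovirus. Spectrophotometric kinase assay run as for VEGF-R2 with 50 nM FGF-R, 2 mM ATP and 15 mM poly(E4Y1).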

Experiment [3] concerns the target T2, unphosphorylated VEGF-R2D50 (FLVK), cytosolic domain of human VEGF-R2 (Homo sapiens, UniProt P35968, DEL940-989/E990V).
T2 construct: VEGF-R2D50 contains residues 806–939 and 990–1171; made in house; host or cells: baculovirus/insect cell system
Description: VEGF-R2 coupled spectrophotometric assay (FLVK). The format is biochemical. The method, boiled down: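 Unphosphorylated VEGF-R2D50 (5–40 nM, baculovirus-expressed) was assayed with 3 mM ATP, 20 mM poly(E4Y1), 60 mM MgCl2 and 2 mM MnCl2 in HEPES pH 7.5. ADP formation was coupled via PK/LDH to NADH oxidation and followed at A340. Ki came from activity at varying compound concentrations fitted by the Morrison equation.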

T2 sequence (P35968 with tags, fused parts or gaps DEL940-989/E990V limits assumed): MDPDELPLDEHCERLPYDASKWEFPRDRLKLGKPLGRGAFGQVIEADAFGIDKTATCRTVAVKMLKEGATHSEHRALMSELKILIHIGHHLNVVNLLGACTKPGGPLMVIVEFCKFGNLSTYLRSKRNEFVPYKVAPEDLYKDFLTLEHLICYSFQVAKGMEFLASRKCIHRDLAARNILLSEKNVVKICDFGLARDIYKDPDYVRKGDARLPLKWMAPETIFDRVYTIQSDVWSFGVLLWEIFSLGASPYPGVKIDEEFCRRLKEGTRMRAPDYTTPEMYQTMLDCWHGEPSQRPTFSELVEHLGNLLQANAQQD

Consider `O=C(Cc1ccc(Oc2ccnc3cc(C(=O)N4CCC4)sc23)cc1)Nc1ccc(Br)cn1` [Example 30, 2-{4-[2-(Azetidine-1-carbonyl)-thieno[3,2-b]pyridin-7-yloxy]-phenyl}-N-(5-bromo-pyridin-2-yl)-acetamide], for which, in experiment [1], the IC50 (commonly the concentration that inhibits the measured activity by half) is 1 to 10 nM. For the same molecule, the inhibition at 0.05 µM in experiment [2] fell in the range of 0 to 5%. Besides, the inhibition constant Ki (as a rule, the dissociation constant of the complex between target and ligand, obtained from inhibition or displacement) in experiment [3] was < 1 nM.
The corresponding values for `O=C(Cc1ccc(Oc2ccnc3cc(C(=O)N4CCC4)sc23)cc1)Nc1cc2ccccc2cn1` [Example 31, 2-{4-[2-(Azetidine-1-carbonyl)-thieno[3,2-b]pyridin-7-yloxy]-phenyl}-N-isoquinolin-3-yl-acetamide] are < 1 nM, 0 to 5% and < 1 nM.
The corresponding values for `O=C(Cc1ccc(Oc2ccnc3cc(C(=O)N4CCC4)sc23)cc1)Nc1nccc2ccccc12` [Example 32, 2-{4-[2-(Azetidine-1-carbonyl)-thieno[3,2-b]pyridin-7-yloxy]-phenyl}-N-isoquinolin-1-yl-acetamide] are > 10 nM, 0 to 5% and 1 to 10 nM.
The corresponding values for `O=C(Cc1ccc(Oc2ccnc3cc(C(=O)N4CCC4)sc23)cc1)Nc1ccc2ccccc2n1` [Example 33, 2-{4-[2-(Azetidine-1-carbonyl)-thieno[3,2-b]pyridin-7-yloxy]-phenyl}-N-quinolin-2-yl-acetamide] are > 10 nM, 0 to 5% and < 1 nM.
Regarding `Cc1cc(NC(=O)Cc2ccc(Oc3ccnc4cc(C(=O)N5CCC5)sc34)cc2)no1` [Example 41, 2-{4-[2-(Azetidine-1-carbonyl)-thieno[3,2-b]pyridin-7-yloxy]-phenyl}-N-(5-methyl-isoxazol-3-yl)-acetamide], the half-inhibitory concentration (IC50) in experiment [1] was in the range of 1 to 10 nM. In addition, the inhibition at 0.05 µM in experiment [2] was 5 to 10%. In experiment [3], the Ki was in the range of 1 to 10 nM.
Regarding `Cc1cc(C)nc(NC(=O)Cc2ccc(Oc3ccnc4cc(C(=O)N5CCC5)sc34)cc2Cl)c1` [Example 49, 2-{4-[2-(Azetidine-1-carbonyl)-thieno[3,2-b]pyridin-7-yloxy]-2-chloro-phenyl}-N-(4,6-dimethyl-pyridin-2-yl)-acetamide], the IC50 in experiment [1] fell in the range of 1 to 10 nM. Moreover, in experiment [2], the inhibition at 0.05 µM was > 10%. The Ki in experiment [3] was < 1 nM.
The corresponding values for `O=C(Cc1ccc(Oc2ccnc3cc(C(=O)N4CCC4)sc23)cc1Cl)Nc1ccc(Cl)cn1` [Example 50, 2-{4-[2-(Azetidine-1-carbonyl)-thieno[3,2-b]pyridin-7-yloxy]-2-chloro-phenyl}-N-(5-chloro-pyridin-2-yl)-acetamide] are > 10 nM, > 10% and 1 to 10 nM.
For `O=C(Cc1ccc(Oc2ccnc3cc(C(=O)N4CCC4)sc23)cc1Cl)Nc1ccccn1` [Example 51, 2-{4-[2-(Azetidine-1-carbonyl)-thieno[3,2-b]pyridin-7-yloxy]-2-chloro-phenyl}-N-pyridin-2-yl-acetamide], in that order: > 10 nM, 0 to 5% and 1 to 10 nM.
For `Cc1cc(NC(=O)Cc2ccc(Oc3ccnc4cc(C(=O)N5CCC5)sc34)cc2Cl)no1` [Example 52, 2-{4-[2-(Azetidine-1-carbonyl)-thieno[3,2-b]pyridin-7-yloxy]-2-chloro-phenyl}-N-(5-methyl-isoxazol-3-yl)-acetamide], in that order: > 10 nM, > 10% and 1 to 10 nM.
Take `Cc1cc(NC(=O)Cc2ccc(Oc3ccnc4cc(C(=O)N5CCC5)sc34)cc2Cl)on1` [Example 53, 2-{4-[2-(Azetidine-1-carbonyl)-thieno[3,2-b]pyridin-7-yloxy]-2-chloro-phenyl}-N-(3-methyl-isoxazol-5-yl)-acetamide]: the IC50 in experiment [1] is 1 to 10 nM. In addition, the inhibition at 0.05 µM in experiment [2] lay in the range of 0 to 5%. Besides, the inhibitory constant (Ki) in experiment [3] is < 1 nM.
For `Cc1cc(NC(=O)Cc2ccc(Oc3ccnc4cc(C(=O)N5CCC5)sc34)cc2Cl)n[nH]1` [Example 55, 2-{4-[2-(Azetidine-1-carbonyl)-thieno[3,2-b]pyridin-7-yloxy]-2-chloro-phenyl}-N-(5-methyl-1H-pyrazol-3-yl)-acetamide], in that order: < 1 nM, 0 to 5% and < 1 nM.
For `Cn1ccnc1-c1cc2nccc(Oc3ccc(CC(=O)Nc4ccccn4)c(Cl)c3)c2s1` [Example 60, 2-{2-Chloro-4-[2-(1-methyl-1H-imidazol-2-yl)-thieno[3,2-b]pyridin-7-yloxy]-phenyl}-N-pyridin-2-yl-acetamide], in that order: > 10 nM, 0 to 5% and 1 to 10 nM.
For `O=C(Cc1ccc(Oc2ccnc3cc(C(=O)N4CC[C@@H](O)C4)sc23)cc1Cl)Nc1ccccn1` [Example 61, 2-{2-Chloro-4-[2-((R)-3-hydroxy-pyrrolidine-1-carbonyl)-thieno[3,2-b]pyridin-7-yloxy]-phenyl}-N-pyridin-2-yl-acetamide], in that order: > 10 nM, 0 to 5% and 1 to 10 nM.
As to `CO[C@@H]1CCN(C(=O)c2cc3nccc(Oc4ccc(CC(=O)Nc5ccccn5)c(Cl)c4)c3s2)C1` [Example 62, 2-{2-Chloro-4-[2-((R)-3-methoxy-pyrrolidine-1-carbonyl)-thieno[3,2-b]pyridin-7-yloxy]-phenyl}-N-pyridin-2-yl-acetamide], the IC50 in experiment [1] was > 10 nM. For the same molecule, the inhibition at 0.05 µM in experiment [2] was in the range of 0 to 5%. Also, in experiment [3], the Ki fell in the range of 1 to 10 nM.
The corresponding values for `C=C(C(=O)NC)c1ccc(Oc2ccnc3cc(C(=O)N4CC[C@@H](O)C4)sc23)cc1` [Example 66, 2-{4-[2-((R)-3-Hydroxy-pyrrolidine-1-carbonyl)-thieno[3,2-b]pyridin-7-yloxy]-phenyl}-N-methyl-acrylamide] are > 10 nM, 0 to 5% and > 10 nM.
For `CNC(=O)Cc1ccc(Oc2ccnc3cc(C(=O)N4CC[C@@H](O)C4)sc23)cc1` [Example 69, 2-{4-[2-((R)-3-Hydroxy-pyrrolidine-1-carbonyl)-thieno[3,2-b]pyridin-7-yloxy]-phenyl}-N-methyl-acetamide], in that order: > 10 nM, 0 to 5% and > 10 nM.
For `CNC(=O)C(O)c1ccc(Oc2ccnc3cc(C(=O)N4CCC4)sc23)cc1` (stereo not drawn) [Example 74, 2-{4-[2-(Azetidine-1-carbonyl)-thieno[3,2-b]pyridin-7-yloxy]-phenyl}-2-hydroxy-N-methyl-acetamide], in that order: > 10 nM, 0 to 5% and 1 to 10 nM.
In the case of `CNC(=O)C(O)c1ccc(Oc2ccnc3cc(C(=O)N4CC[C@@H](O)C4)sc23)cc1` (stereo partly drawn) [Example 76, 2-Hydroxy-2-{4-[2-((R)-3-hydroxy-pyrrolidine-1-carbonyl)-thieno[3,2-b]pyridin-7-yloxy]-phenyl}-N-methyl-acetamide], in experiment [1], the IC50 is > 10 nM. Moreover, the inhibition at 0.05 µM in experiment [2] lay within 0 to 5%. The inhibitory constant (Ki) in experiment [3] was in the range of 1 to 10 nM.
For `CCCCNC(=O)Oc1ccc(Oc2ccnc3cc(C(=O)N4CCC4)sc23)cc1` [Example 86, butyl-carbamic acid 4-[2-(azetidine-1-carbonyl)-thieno[3,2-b]pyridin-7-yloxy]-phenyl ester], in that order: < 1 nM, 0 to 5% and 1 to 10 nM.
For `COc1ccc2c(Oc3ccc(CC(=O)Nc4ccc(Cl)cn4)cc3)ccnc2c1` [Example 87, N-(5-Chloro-pyridin-2-yl)-2-[4-(7-methoxy-quinolin-4-yloxy)-phenyl]-acetamide], in that order: > 10 nM, 0 to 5% and 1 to 10 nM.
